Laboratory results as given in the NIST ThermoML archive (doi:10.1016/j.jct.2016.03.026).

Test: xn = mol fraction of the nth substance listed
Conditions: 263.15 K, Fluid (supercritical or subcritical phases), Vibrating tube method, x1 = 0.97

O=C=O [carbon dioxide] + CO
Conditions | mass density [kg/m3]
7525 kPa | 1006.96
7550 kPa | 1007.04
7575 kPa | 1007.2
7600 kPa | 1007.28
7625 kPa | 1007.38
7650 kPa | 1007.53
7675 kPa | 1007.61
7700 kPa | 1007.76
7725 kPa | 1007.86
7750 kPa | 1007.94
7775 kPa | 1008.1
7800 kPa | 1008.18
7825 kPa | 1008.35
7850 kPa | 1008.43
7875 kPa | 1008.51
7900 kPa | 1008.68
7925 kPa | 1008.76
7950 kPa | 1008.84
7975 kPa | 1009
8000 kPa | 1009.08
8025 kPa | 1009.16
8050 kPa | 1009.33
8075 kPa | 1009.41
8100 kPa | 1009.54
8125 kPa | 1009.66
8150 kPa | 1009.74
8175 kPa | 1009.86
8200 kPa | 1009.98
8225 kPa | 1010.06
8250 kPa | 1010.23
8275 kPa | 1010.31
8300 kPa | 1010.39
8325 kPa | 1010.56
8350 kPa | 1010.64
8375 kPa | 1010.74
8400 kPa | 1010.88
8425 kPa | 1010.96
8450 kPa | 1011.04
8475 kPa | 1011.21
8500 kPa | 1011.29
8525 kPa | 1011.44
8550 kPa | 1011.54
8575 kPa | 1011.62
8600 kPa | 1011.73
8625 kPa | 1011.86
8650 kPa | 1011.94
8675 kPa | 1012.05
8700 kPa | 1012.19
8725 kPa | 1012.27
8750 kPa | 1012.41
8775 kPa | 1012.52
8800 kPa | 1012.6
8825 kPa | 1012.76
8850 kPa | 1012.85
8875 kPa | 1012.93
8900 kPa | 1013.03
8925 kPa | 1013.17
8950 kPa | 1013.25
8975 kPa | 1013.35
9000 kPa | 1013.49
9025 kPa | 1013.58
9050 kPa | 1013.66
9075 kPa | 1013.83
9100 kPa | 1013.91
9125 kPa | 1013.99
9150 kPa | 1014.08
9175 kPa | 1014.23
9200 kPa | 1014.31
9225 kPa | 1014.39
9250 kPa | 1014.56
9275 kPa | 1014.64
9300 kPa | 1014.72
9325 kPa | 1014.89
9350 kPa | 1014.97
9375 kPa | 1015.05
9400 kPa | 1015.13
9425 kPa | 1015.3
9450 kPa | 1015.38
9475 kPa | 1015.46
9500 kPa | 1015.54
9525 kPa | 1015.7
9550 kPa | 1015.78
9575 kPa | 1015.87
9600 kPa | 1016.03
9625 kPa | 1016.11
9650 kPa | 1016.19
9675 kPa | 1016.28
9700 kPa | 1016.44
9725 kPa | 1016.52
9750 kPa | 1016.6
9775 kPa | 1016.77
9800 kPa | 1016.85
9825 kPa | 1016.93
9850 kPa | 1017.01
9875 kPa | 1017.17
9900 kPa | 1017.25
9925 kPa | 1017.34
9950 kPa | 1017.47
9975 kPa | 1017.58
10000 kPa | 1017.66
10025 kPa | 1017.74
10050 kPa | 1017.83
10075 kPa | 1017.99
10100 kPa | 1018.07
10125 kPa | 1018.15
10150 kPa | 1018.23
10175 kPa | 1018.34
10200 kPa | 1018.48
10225 kPa | 1018.56
10250 kPa | 1018.68
10275 kPa | 1018.81
10300 kPa | 1018.89
10325 kPa | 1018.97
10350 kPa | 1019.09
10375 kPa | 1019.21
10400 kPa | 1019.3
10425 kPa | 1019.38
10450 kPa | 1019.46
10475 kPa | 1019.62
10500 kPa | 1019.7
10525 kPa | 1019.78
10550 kPa | 1019.87
10575 kPa | 1020.02
10600 kPa | 1020.11
10625 kPa | 1020.19
10650 kPa | 1020.27
10675 kPa | 1020.44
10700 kPa | 1020.52
10725 kPa | 1020.6
10750 kPa | 1020.68
10775 kPa | 1020.76
10800 kPa | 1020.93
10825 kPa | 1021.01
10850 kPa | 1021.09
10875 kPa | 1021.17
10900 kPa | 1021.25
10925 kPa | 1021.42
10950 kPa | 1021.5
10975 kPa | 1021.58
11000 kPa | 1021.66
11025 kPa | 1021.83
11050 kPa | 1021.91
11075 kPa | 1021.99
11100 kPa | 1022.07
11125 kPa | 1022.15
11150 kPa | 1022.29
11175 kPa | 1022.4
11200 kPa | 1022.48
11225 kPa | 1022.56
11250 kPa | 1022.64
11275 kPa | 1022.8
11300 kPa | 1022.89
11325 kPa | 1022.97
11350 kPa | 1023.05
11375 kPa | 1023.13
11400 kPa | 1023.29
11425 kPa | 1023.38
11450 kPa | 1023.46
11475 kPa | 1023.54
11500 kPa | 1023.62
11525 kPa | 1023.75
11550 kPa | 1023.86
11575 kPa | 1023.95
11600 kPa | 1024.03
11625 kPa | 1024.11
11650 kPa | 1024.21
11675 kPa | 1024.35
11700 kPa | 1024.44
11725 kPa | 1024.52
11750 kPa | 1024.6
11775 kPa | 1024.74
11800 kPa | 1024.84
11825 kPa | 1024.93
11850 kPa | 1025.01
11875 kPa | 1025.09
11900 kPa | 1025.19
11925 kPa | 1025.29
11950 kPa | 1025.41
11975 kPa | 1025.5
12000 kPa | 1025.58
12025 kPa | 1025.66
12050 kPa | 1025.75
12075 kPa | 1025.9
12100 kPa | 1025.98
12125 kPa | 1026.07
12150 kPa | 1026.15
12175 kPa | 1026.31
12200 kPa | 1026.39
12225 kPa | 1026.47
12250 kPa | 1026.56
12275 kPa | 1026.64
12300 kPa | 1026.72
12325 kPa | 1026.88
12350 kPa | 1026.96
12375 kPa | 1027.05
12400 kPa | 1027.13
12425 kPa | 1027.21
12450 kPa | 1027.29
12475 kPa | 1027.38
12500 kPa | 1027.53
12525 kPa | 1027.62
12550 kPa | 1027.7
12575 kPa | 1027.78
12600 kPa | 1027.86
12625 kPa | 1027.96
12650 kPa | 1028.09
12675 kPa | 1028.19
12700 kPa | 1028.27
12725 kPa | 1028.35
12750 kPa | 1028.43
12775 kPa | 1028.51
12800 kPa | 1028.6
12825 kPa | 1028.76
12850 kPa | 1028.84
12875 kPa | 1028.92
12900 kPa | 1029
12925 kPa | 1029.08
12950 kPa | 1029.2
12975 kPa | 1029.3
13000 kPa | 1029.41
13025 kPa | 1029.49
13050 kPa | 1029.57
13075 kPa | 1029.65
13100 kPa | 1029.73
13125 kPa | 1029.88
13150 kPa | 1029.94
13175 kPa | 1030.06
13200 kPa | 1030.14
13225 kPa | 1030.22
13250 kPa | 1030.31
13275 kPa | 1030.39
13300 kPa | 1030.53
13325 kPa | 1030.63
13350 kPa | 1030.71
13375 kPa | 1030.8
13400 kPa | 1030.88
13425 kPa | 1030.96
13450 kPa | 1031.04
13475 kPa | 1031.14
13500 kPa | 1031.29
13525 kPa | 1031.37
13550 kPa | 1031.45
13575 kPa | 1031.53
13600 kPa | 1031.61
